# Experiments:
# [1] = test system: rd1 mice expressing SNAP-mGluR2 in RGCs; assay: 2-chamber light/dark light aversion test, SNAP-mGluR2 in RGCs; format: in vivo, mouse
# Description: (§1) Mouse experiments were conducted under the express approval of the University of California Animal Care and Use Committee, wt mice (C57BL/6J) and rd1 mice (C3H) were purchased from the Jackson Laboratory and housed on a 12-h light/dark cycle with food and water ad libitum. cDNA encoding SNAP-mGluR2 was inserted in an established viral cassette under control of either the human synapsin promoter (hsyn-1) for expression in RGCs or a 4-copy concatemer of the mouse grm6 minimal promoter (4×grm6) for expression in ON-BCs and packaged in the AAV 2/2-4YF capsid. The vector, containing 10^10-10^12 viral genomes was delivered in a 2 µl volume to the vitreous of the rd1 mouse eye via microinjection. rAAV injections were at p30-p60 and in vivo and in vitro experiments at p90-p160. AAVs were produced as previously described.
# Photoswitch compounds were synthesized using the protocol described in Broichhagen, J., et al. (2015) ACS Cent Sci 1, 383-393. Stock solution of […] BGAG12,460 (L-diastereomer) in 100% pharmaceutical grade DMSO (Cryoserv; Bioniche Pharma) was diluted 1:100 in sterile PBS for a final working solution of 1 mM in 1% DMSO. Working solutions were either prepared before administration, prepared in stock stored in the freezer and used as required, or salvaged from the recording bath and stored (either RT or freezer) for reuse. Application of BGAG12,460 or BGAG12 on retinal explants were performed in a volume of 200 μL at a concentration of 50 μM to 50 nM BGAG12,460 (in PBS with >1% DMSO). For in vivo behavioral experiments, a 2-μL volume of 1 mM or 3.5 μL (final vitreal concentration of […]) of BGAG12,460 solution (in PBS with 1% DMSO) was injected into eyes that treated with AAV>6 wks earlier). For in vivo concentration dependence experiments, the mouse eye was assumed to contain a volume of 5.3 μL and a 2-μL volume of 3.5 μM, 1.825 μM and 0.1825 μM BGAG12,460 solution (in PBS with 1% DMSO) was injected into eyes to obtain a final concentration of 1 μM, 500 nM and 50 nM^62. For hydrated slow release 5% pharmaceutical grade beta cyclodextrin (cyclodex) in PBS was mixed with BGAG12,460 for a final concentration of 3 μM and 2 μL were injected bilaterally into the mouse eye. MAG0460 was synthesized and administered in 2 μL at a concentration of 100 μM.
# (§2) The 2-chamber light-dark passive avoidance test was performed. White light (wavelength range) at ˜100 μW cm^2 or either blue light (460/45 nm) or green light (535/50 nm) at 0.5-25 μW cm^2 was mounted above the chamber with homogeneously distributed light.
# (§3) Animal movements were tracked using IR sensors on the shuttle box. Time spent in the light and dark chambers was measured and analyzed using Graphic State and Graphic State RT (Coulbourn Instruments).
# Natural light aversion behavior was tested. […]
# [2] = test system: rd1 mice expressing SNAP-mGluR2 in ON-BCs; assay: 2-chamber light/dark light aversion test, SNAP-mGluR2 in ON-BCs; format: in vivo, mouse; settings: in PBS intravitreal
# Description: as §1, §2, §3
# Whether ^4×BGAG12,460:SNAP-mGluR2 would also restore light perception in ON-BCs was tested. […]
smiles,measurement,setting,value
"Nc1nc(OCc2ccc(CNC(=O)CCCC(=O)N[C@H](CCC(=O)N[C@H](CCC(=O)NCCOCCOCCOCCOCCOCCOCCOCCOCCOCCOCCOCCOCCC(=O)NCCNc3ccc(/N=N/c4ccc(NC(=O)CCC[C@@H](C[C@H](N)C(=O)O)C(=O)O)cc4)cc3)C(=O)NCCOCCOCCOCCOCCOCCOCCOCCOCCOCCOCCOCCOCCC(=O)NCCNc3ccc(/N=N/c4ccc(NC(=O)CCC[C@@H](C[C@H](N)C(=O)O)C(=O)O)cc4)cc3)C(=O)N[C@H](CCC(=O)NCCOCCOCCOCCOCCOCCOCCOCCOCCOCCOCCOCCOCCC(=O)NCCNc3ccc(/N=N/c4ccc(NC(=O)CCC[C@@H](C[C@H](N)C(=O)O)C(=O)O)cc4)cc3)C(=O)NCCOCCOCCOCCOCCOCCOCCOCCOCCOCCOCCOCCOCCC(=O)NCCNc3ccc(/N=N/c4ccc(NC(=O)CCC[C@@H](C[C@H](N)C(=O)O)C(=O)O)cc4)cc3)cc2)c2nc[nH]c2n1 [^4×BGAG12,460]",dark preference three weeks after injection,[1]; in PBS intravitreal,disappeared
same,light aversion (time in dark versus illuminated chamber),"[1]; in PBS intravitreal, first week after injection, white screen 88 uW/cm^2",spent more time in the dark chamber than in the illuminated chamber
same,light aversion at 0.2 μW/cm^2,[1]; intensity-response relation,operating at chance
same,light intensity giving maximal light-aversion behavior,[1]; intensity-response relation,25 μW/cm^2
same,week post-injection by which dark preference disappeared,[2],≤ 3 week
same,light aversion (time in dark chamber),[2]; first week after injection,spent more time in the dark chamber

# — patent US12076329B2, “Compositions and methods for enhancing visual function” (The Regents of the University of California, priority 2020, dated 2024)
